Results on 11 molecules are retold here after patent US10624972B2, “Conjugates for treating diseases” (priority 2015, dated 2020).

The subject of the assay is KB cells. Description: cells. The assay is classed as cell-based, Human. Here is the method:
METHOD. Inhibition of Cellular DNA Synthesis. The conjugates described herein were evaluated using an in vitro cytotoxicity assay that predicted the ability of the drug to inhibit the growth of the corresponding targeted cells, such as, but not limited to the following
It is to be understood that the choice of cell type can be made on the basis of the susceptibility of those selected cells to the drug that forms the conjugate, and the relative expression of the cell surface receptor or target antigen. The test conjugates were conjugates of a cell surface receptor or target antigen binding compound and PBD prodrugs, poly-PBD prodrugs, and mixed PBDs, as described herein. The test cells were exposed to varying concentrations of the conjugates, and optionally also in the absence or presence of at least a 100-fold excess of the unconjugated cell surface receptor or target antigen binding compound for competition studies to assess activity as being specific to the cell surface receptor or target antigen.
EXAMPLE. Conjugates of PBD prodrugs, poly-PBD prodrugs, and mixed PBDs described herein were active against KB cells. The activity was mediated by the folate receptor as indicated by competition experiments using co-administered folic acid. KB cells were exposed for up to 7 h at 37° C. to the indicated concentrations of folate-drug conjugate in the absence or presence of at least a 100-fold excess of folic acid. The cells were then rinsed once with fresh culture medium and incubated in fresh culture medium for 72 hours at 37° C. Cell viability was assessed using a ^3H-thymidine incorporation assay. For conjugates described herein, dose-dependent cytotoxicity was generally measurable, and in most cases, the IC50 values (concentration of drug conjugate required to reduce ^3H-thymidine incorporation into newly synthesized DNA by 50%) were in the low nanomolar range.

[1] abbreviates: Homo sapiens, KB cells, 3H-thymidine incorporation, read-out: IC50 KB Cells.
Where [2] appears, read: Homo sapiens, KB cells, co-administered with dithiothreitol (DTT), read-out: IC50 KB Cells.

Where two headings read alike, the source gives them in different places. *1 amine or outer side, *2 acyl side, *3 side chain or, on linkers, in order; H or OH if unused. Where a SMILES comes first, the peptide text is derived from it. The star is where a group is joined. X2 = COc1cc(N)c(C(=O)N2c3ccccc3C[C@H]2C2OCCN2C(=O)OCc2ccc(S*)cc2)cc1OC; Pteroyl = Nc1nc2ncc(CNc3ccc(C(=O)*)cc3)nc2c(=O)[nH]1; γGlu = O=C(O)[C@H](CCC(=O)[*:2])N[*:1]

The term IC50 denotes the concentration that gives 50% inhibition.

Turning to `COc1cc(N)c(C(=O)N2c3ccccc3C[C@H]2C2OCCN2C(=O)OCc2ccc(SSC[C@H](NC(=O)[C@H](CC(=O)O)NC(=O)[C@H](CC(=O)O)NC(=O)[C@H](CCCNC(=N)N)NC(=O)[C@H](CC(=O)O)NC(=O)CC[C@H](NC(=O)c3ccc(NCc4cnc5nc(N)[nH]c(=O)c5n4)cc3)C(=O)O)C(=O)O)cc2)cc1OC` (stereo partly shown) [EC1673] ({Pteroyl-γGlu}-DRDDC(X2)-OH), the IC50 is at least 1000 nM. Regarding `C=C1C[C@@H](C2OCCN2C(=O)OCCSSC[C@@H](NC(=O)[C@H](CCC(=O)NC[C@H](O)[C@@H](O)[C@H](O)[C@H](O)CO)NC(=O)[C@@H](CCC(=O)O)NC(=O)[C@H](CCC(=O)NC[C@H](O)[C@@H](O)[C@H](O)[C@H](O)CO)NC(=O)[C@@H](CCC(=O)O)NC(=O)[C@H](CCC(=O)NC[C@H](O)[C@@H](O)[C@H](O)[C@H](O)CO)NC(=O)CC[C@H](NC(=O)c2ccc(NCc3cnc4nc(N)[nH]c(=O)c4n3)cc2)C(=O)O)C(=O)O)N(C(=O)c2cc(OC)c(OCCCCCOc3cc(N)c(C(=O)N4CC(=C)C[C@H]4C4OCCN4C(=O)OCCSSc4ccccn4)cc3OC)cc2N)C1` (stereo partly shown) [EC1949], half-maximal inhibition (3 h) (IC50) required 1.49 nM. Regarding `C=C1C[C@@H](C2OCCN2C(=O)OCCSSc2ccccn2)N(C(=O)c2cc(OC)c(OCCCCCOc3cc(N)c(C(=O)N4CC(=C)C[C@H]4C4OCCN4C(=O)OCCSSc4ccccn4)cc3OC)cc2N)C1` (stereo partly shown) [EC1695], the IC50 is at least 100 nM under setting [1] and 1 nM under setting [2]. The molecule `C=C1C[C@H]2C(=O)Nc3cc(OCCCCCOc4cc(N)c(C(=O)N5CC(=C)C[C@H]5C5OCCN5C(=O)OCCCSC[C@H](NC(=O)[C@H](CC(=O)O)NC(=O)[C@H](CC(=O)O)NC(=O)[C@H](CCCNC(=N)N)NC(=O)[C@H](CC(=O)O)NC(=O)CC[C@H](NC(=O)c5ccc(NCc6cnc7nc(N)[nH]c(=O)c7n6)cc5)C(=O)O)C(=O)O)cc4OC)c(OC)cc3C(=O)N2C1` (stereo partly shown) [EC1772] had an IC50 (3 h) of 0.33 nM.

`C=C1C[C@@H](C2OCCN2C(=O)OCc2ccc(SSC[C@H](NC(=O)[C@H](CC(=O)O)NC(=O)[C@H](CC(=O)O)NC(=O)[C@H](CCCNC(=N)N)NC(=O)[C@H](CC(=O)O)NC(=O)CC[C@H](NC(=O)c3ccc(NCc4cnc5nc(N)[nH]c(=O)c5n4)cc3)C(=O)O)C(=O)O)cc2)N(C(=O)c2cc(OC)c(OCCCCCOc3cc(N)c(C(=O)N4CC(=C)C[C@H]4C4OCCN4C(=O)OCc4ccc(SSC[C@H](NC(=O)[C@H](CC(=O)O)NC(=O)[C@H](CC(=O)O)NC(=O)[C@H](CCCNC(=N)N)NC(=O)[C@H](CC(=O)O)NC(=O)CC[C@H](NC(=O)c5ccc(NCc6cnc7nc(N)[nH]c(=O)c7n6)cc5)C(=O)O)C(=O)O)cc4)cc3OC)cc2N)C1` (stereo partly shown) [EC1704] had an IC50 (3 h) of 0.46 nM. The same measure, in the same setting: the same measure for `C=C1C[C@@H](C2OCCN2C(=O)OCc2ccc(NC(=O)[C@H](C)NC(=O)[C@@H](NC(=O)CCOCCOCCOCCOCCNC(=O)CCN3C(=O)CC(SC[C@@H](NC(=O)[C@H](CCC(=O)NC[C@H](O)[C@@H](O)[C@H](O)[C@H](O)CO)NC(=O)[C@@H](CCC(=O)O)NC(=O)[C@H](CCC(=O)NC[C@H](O)[C@@H](O)[C@H](O)[C@H](O)CO)NC(=O)[C@@H](CCC(=O)O)NC(=O)[C@H](CCC(=O)NC[C@H](O)[C@@H](O)[C@H](O)[C@H](O)CO)NC(=O)CC[C@H](NC(=O)c4ccc(NCc5cnc6nc(N)[nH]c(=O)c6n5)cc4)C(=O)O)C(=O)O)C3=O)C(C)C)cc2)N(C(=O)c2cc(OC)c(OCCCCCOc3cc(N)c(C(=O)N4CC(=C)C[C@H]4C4OCCN4C(=O)OCc4ccc([N+](=O)[O-])cc4)cc3OC)cc2N)C1` (stereo partly shown) [EC2127]: 1.34 nM; for `C=C1C[C@@H](C2OCCN2C(=O)OCC2c3ccccc3-c3ccccc32)N(C(=O)c2cc(OC)c(OCCCCCOc3cc(NC(=O)OCc4ccc(NC(=O)[C@H](C)NC(=O)[C@@H](NC(=O)CCOCCOCCOCCOCCNC(=O)CCN5C(=O)CC(SC[C@@H](NC(=O)[C@H](CCC(=O)NC[C@H](O)[C@@H](O)[C@H](O)[C@H](O)CO)NC(=O)[C@@H](CCC(=O)O)NC(=O)[C@H](CCC(=O)NC[C@H](O)[C@@H](O)[C@H](O)[C@H](O)CO)NC(=O)[C@@H](CCC(=O)O)NC(=O)[C@H](CCC(=O)NC[C@H](O)[C@@H](O)[C@H](O)[C@H](O)CO)NC(=O)CC[C@H](NC(=O)c6ccc(NCc7cnc8nc(N)[nH]c(=O)c8n7)cc6)C(=O)O)C(=O)O)C5=O)C(C)C)cc4)c(C(=O)N4CC(=C)C[C@H]4C4OCCN4C(=O)OCC4c5ccccc5-c5ccccc54)cc3OC)cc2N)C1` (stereo partly shown) [EC2103]: 3.5 nM; for `C=C1C[C@@H](C2OCCN2C(=O)OCc2ccc(NC(=O)[C@H](C)NC(=O)[C@@H](NC(=O)CCCCCN3C(=O)CC(SC[C@@H](NC(=O)[C@H](CCC(=O)NC[C@H](O)[C@@H](O)[C@H](O)[C@H](O)CO)NC(=O)[C@@H](CCC(=O)O)NC(=O)[C@H](CCC(=O)NC[C@H](O)[C@@H](O)[C@H](O)[C@H](O)CO)NC(=O)[C@@H](CCC(=O)O)NC(=O)[C@H](CCC(=O)NC[C@H](O)[C@@H](O)[C@H](O)[C@H](O)CO)NC(=O)CC[C@H](NC(=O)c4ccc(NCc5cnc6nc(N)[nH]c(=O)c6n5)cc4)C(=O)O)C(=O)O)C3=O)C(C)C)cc2)N(C(=O)c2cc(OC)c(OCCCCCOc3cc(N)c(C(=O)N4CC(=C)C[C@H]4C4OCCN4C(=O)OCC4c5ccccc5-c5ccccc54)cc3OC)cc2N)C1` (stereo partly shown) [EC1911]: 0.7 nM. Still for that read-out and setting: the same measure for `C=C1C[C@@H](C2OCCN2C(=O)OCc2ccc(NC(=O)[C@H](C)NC(=O)[C@@H](NC(=O)CCOCCOCCOCCOCCNC(=O)CCN3C(=O)CC(SC[C@@H](NC(=O)[C@H](CCC(=O)NC[C@H](O)[C@@H](O)[C@H](O)[C@H](O)CO)NC(=O)[C@@H](CCC(=O)O)NC(=O)[C@H](CCC(=O)NC[C@H](O)[C@@H](O)[C@H](O)[C@H](O)CO)NC(=O)[C@@H](CCC(=O)O)NC(=O)[C@H](CCC(=O)NC[C@H](O)[C@@H](O)[C@H](O)[C@H](O)CO)NC(=O)CC[C@H](NC(=O)c4ccc(NCc5cnc6nc(N)[nH]c(=O)c6n5)cc4)C(=O)O)C(=O)O)C3=O)C(C)C)cc2)N(C(=O)c2cc(OC)c(OCCCCCOc3ccc(-c4nc5ccc(-c6nc7cc(N8CCN(C)CC8)ccc7[nH]6)cc5[nH]4)cc3)cc2N)C1` (stereo partly shown) [EC2080]: 0.2 nM. As for `COc1ccc(C2=CN(C(=O)c3cc(OC)c(OC)cc3N)[C@H](C3OCCN3C(=O)OCCSSc3ccccn3)C2)cc1` (stereo partly shown) [EC1628], the IC50 amounted to 383 nM under setting [1] and 11 nM under setting [2]. Molecule `C=C1C[C@H]2C(=O)Nc3cc(OCCCCCOc4cc(N)c(C(=O)N5CC(=C)C[C@H]5C5OCCN5C(=O)OCc5ccc(NC(=O)[C@H](C)NC(=O)[C@@H](NC(=O)CCOCCOCCOCCOCCNC(=O)CCN6C(=O)CC(SC[C@@H](NC(=O)[C@H](CCC(=O)NC[C@H](O)[C@@H](O)[C@H](O)[C@H](O)CO)NC(=O)[C@@H](CCC(=O)O)NC(=O)[C@H](CCC(=O)NC[C@H](O)[C@@H](O)[C@H](O)[C@H](O)CO)NC(=O)[C@@H](CCC(=O)O)NC(=O)[C@H](CCC(=O)NC[C@H](O)[C@@H](O)[C@H](O)[C@H](O)CO)NC(=O)CC[C@H](NC(=O)c7ccc(NCc8cnc9nc(N)[nH]c(=O)c9n8)cc7)C(=O)O)C(=O)O)C6=O)C(C)C)cc5)cc4OC)c(OC)cc3C(=O)N2C1` (stereo partly shown) [EC2074] came in with an IC50 (3 h) of 3.6 nM.
